Laboratory results reported in DBAASP.
Values after ≈ are worked out from the molar mass of the structure shown. Values joined by “and” are separate entries in the source; they are usually repeats but may differ in a detail not shown here. Equal entries are not always repeated.

Legend:
Test in all cases: ≥ marks a high value that may be exact or a test limit, other limits are often not marked, values filed in µg/mL are converted to µM
[1] = tested on: Pseudomonas aeruginosa H1001
[2] = tested on: Candida albicans ATCC 36232
[3] = tested on: Escherichia coli ATCC 2592
[4] = tested on: Pseudomonas aeruginosa ATCC 9027
[5] = tested on: Staphylococcus aureus ATCC 6538
[6] = tested on: Escherichia coli ATCC 25922
Micrococcus luteus = tested on: Micrococcus luteus
[7] = tested on: Pseudomonas aeruginosa ATCC 15692
Saccharomyces cerevisiae = tested on: Saccharomyces cerevisiae
[8] = tested on: Staphylococcus aureus ATCC 25923
[9] = tested on: Micrococcus luteus ATCC 9341
Escherichia coli = tested on: Escherichia coli
Pseudomonas aeruginosa = tested on: Pseudomonas aeruginosa
Staphylococcus aureus MR = tested on: Staphylococcus aureus MR
Staphylococcus aureus = tested on: Staphylococcus aureus
Acinetobacter baumannii = tested on: Acinetobacter baumannii
[10] = tested on: Pseudomonas aeruginosa PAO1
[11] = tested on: Salmonella enterica serovar Typhimurium
Candida albicans = tested on: Candida albicans
[12] = tested on: Enterococcus faecalis ATCC 29212
Escherichia coli UB1005 = tested on: Escherichia coli UB1005
[13] = tested on: Pseudomonas aeruginosa H103
[14] = tested on: Staphylococcus epidermidis
[15] = tested on: Staphylococcus aureus NCTC 8325
[16] = tested on: Pseudomonas aeruginosa ATCC 10145

Compound `CC[C@H](C)[C@H](NC(=O)[C@H](C)NC(=O)[C@@H](NC(=O)[C@H](CCCCN)NC(=O)[C@H](CCCCN)NC(=O)[C@H](Cc1cnc[nH]1)NC(=O)[C@@H](NC(=O)[C@H](CCCN=C(N)N)NC(=O)[C@H](CS)NC(=O)[C@@H](N)CC(C)C)C(C)C)[C@@H](C)CC)C(=O)O` [LCRVHKKIAI] has an MIC [1] of at least 169 µM.

`CC[C@H](C)[C@H](NC(=O)[C@H](CCCCN)NC(=O)[C@H](Cc1c[nH]c2ccccc12)NC(=O)[C@H](CCCCN)NC(=O)[C@@H](N)CCCCN)C(=O)N[C@H](C(=O)N[C@H](C(=O)N[C@H](C(=O)N[C@@H](CCCN=C(N)N)C(=O)N[C@@H](Cc1c[nH]c2ccccc12)C(=O)N[C@@H](CCCN=C(N)N)C(=O)N[C@@H](CCCN=C(N)N)C(N)=O)[C@@H](C)CC)C(C)C)C(C)C` [KKWKIVVIRWRR] showed an MIC [1] of 1.2 µM (≈ 2 µg/mL).

Work on `NCCCC[C@H](NC(=O)[C@H](CCCN=C(N)N)NC(=O)[C@H](Cc1c[nH]c2ccccc12)NC(=O)[C@H](CCCCN)NC(=O)[C@H](Cc1c[nH]c2ccccc12)NC(=O)[C@H](Cc1c[nH]c2ccccc12)NC(=O)[C@H](Cc1cnc[nH]1)NC(=O)[C@H](Cc1ccccc1)NC(=O)[C@@H](N)CCCCN)C(N)=O` [KFHWWKWRK] yielded an MIC [1] of at least 178 µM.

For `CC[C@H](C)[C@H](NC(=O)[C@H](CCCN=C(N)N)NC(=O)[C@H](CCCN=C(N)N)NC(=O)[C@@H]1CCCN1C(=O)[C@@H]1CCCN1C(=O)[C@H](CCCN=C(N)N)NC(=O)[C@@H]1CCCN1C(=O)[C@H](CCCN=C(N)N)NC(=O)[C@@H]1CCCN1C(=O)[C@H](CC(C)C)NC(=O)[C@H](Cc1ccc(O)cc1)NC(=O)[C@@H]1CCCN1C(=O)[C@@H]1CCCN1C(=O)[C@H](CCCCN)NC(=O)[C@@H]1CCCN1C(=O)[C@@H](N)C(C)C)C(=O)N[C@@H](Cc1ccc(O)cc1)C(=O)N[C@@H](CC(N)=O)C(=O)N[C@@H](CCCN=C(N)N)C(=O)NCC(=O)O` [VPKPPYLPRPRPPRRIYNRG], the MIC [1] was 0.123 µM (≈ 0.3 µg/mL).

For `CC(C)C[C@H](NC(=O)[C@H](CS)NC(=O)[C@H](CCCCN)NC(=O)[C@H](C)NC(=O)[C@H](C)NC(=O)[C@H](CS)NC(=O)[C@H](C)NC(=O)[C@H](C)NC(=O)[C@@H](N)CCCCN)C(=O)N[C@@H](Cc1c[nH]c2ccccc12)C(=O)N[C@@H](CCCN=C(N)N)C(N)=O` [KAACAAKCLWR], the MIC [2] was at least 164 µM, the MIC [3] was at least 164 µM and the MIC [4] was 81.9 µM and 164 µM. For the same compound, the MIC [5] was 41 µM and 81.9 µM.

In the case of `CC[C@H](C)[C@H](NC(=O)[C@H](C)NC(=O)[C@@H](N)CC(N)=O)C(=O)N[C@@H](CCCCN)C(=O)N[C@@H](CC(C)C)C(=O)N[C@@H](CC(C)C)C(=O)N[C@@H](CS)C(=O)N[C@@H](CCCN=C(N)N)C(=O)N[C@H](C(=O)N[C@@H](Cc1cnc[nH]1)C(=O)O)C(C)C` [NAIKLLCRVH], the MIC [1] is reported as at least 85.7 µM.

With `CC[C@H](C)[C@H](NC(=O)[C@H](CC(C)C)NC(=O)[C@H](CCCCN)NC(=O)[C@H](CO)NC(=O)[C@H](C)NC(=O)CNC(=O)[C@H](CCCCN)NC(=O)[C@H](CC(C)C)NC(=O)[C@H](C)NC(=O)[C@H](CCSC)NC(=O)[C@H](CCCCN)NC(=O)[C@H](C)NC(=O)[C@H](Cc1ccccc1)NC(=O)[C@@H](NC(=O)CNC(=O)[C@H](Cc1ccccc1)NC(=O)[C@H](CC(C)C)NC(=O)[C@@H](N)CO)[C@@H](C)O)C(=O)N1CCC[C@H]1C(=O)N[C@@H](Cc1cnc[nH]1)C(=O)N[C@@H](CC(C)C)C(=O)N[C@@H](CC(C)C)C(=O)N1CCC[C@H]1C(=O)N[C@@H](CO)C(=O)N[C@@H](CCCN=C(N)N)C(=O)N[C@@H](CCC(N)=O)C(=O)N[C@@H](CCC(N)=O)C(=O)O` [SLFGTFAKMALKGASKLIPHLLPSRQQ] the MIC [6] was 2.83 µM, the MIC (Micrococcus luteus) was 0.5 µM and the MIC [7] was 5.66 µM. For the same compound, the MIC (Saccharomyces cerevisiae) was 16 µM and the MIC [8] was 1 µM.

`CC(C)[C@H](NC(=O)[C@H](CCCCN)NC(=O)[C@H](Cc1ccccc1)NC(=O)[C@@H](NC(=O)[C@@H](NC(=O)[C@H](CCCCN)NC(=O)[C@@H](N)CCCCN)C(C)C)C(C)C)C(=O)N[C@@H](CCCCN)C(=O)N[C@@H](Cc1ccccc1)C(=O)N[C@@H](CCCCN)C(=O)N[C@@H](CCCCN)C(=O)N[C@@H](CCCCN)C(N)=O` [KKVVFKVKFKKK] was tested, and the MIC [2] was 2.08 µM and 1.47 µM and 4.15 µM, the MIC [9] was 2.08 µM (≈ 3.13 µg/mL) and the MIC [5] was 2.08 µM (≈ 3.13 µg/mL).

`CC[C@H](C)[C@H](NC(=O)[C@H](C)NC(=O)[C@H](CC(C)C)NC(=O)[C@H](CC(C)C)NC(=O)[C@H](Cc1c[nH]c2ccccc12)NC(=O)[C@H](C)N)C(=O)N[C@@H](CCCN=C(N)N)C(=O)N[C@@H](CCCCN)C(=O)N[C@@H](CCCN=C(N)N)C(N)=O` [AWLLAIRKR] gave an MIC (Escherichia coli) of 4.44 µM (≈ 5 µg/mL), an MIC (Pseudomonas aeruginosa) of 3.55 µM (≈ 4 µg/mL) and an MIC (Staphylococcus aureus MR) of 22.2 µM (≈ 25 µg/mL). For the same compound, the MIC (Staphylococcus aureus) was 2.66 µM (≈ 3 µg/mL).

Work on `CC[C@H](C)[C@H](NC(=O)[C@H](CCCN=C(N)N)NC(=O)[C@H](CC(C)C)NC(=O)[C@H](CCC(N)=O)NC(=O)[C@@H](N)C(C)C)C(=O)N[C@@H](CCCN=C(N)N)C(=O)N[C@H](C(=O)N[C@@H](CS)C(=O)N[C@H](C(=O)N[C@H](C(=O)N[C@@H](CCCN=C(N)N)C(=O)N[C@@H](CCCN=C(N)N)C(=O)O)[C@@H](C)CC)C(C)C)C(C)C` [VQLRIRVCVIRR] yielded an MIC (Acinetobacter baumannii) of 30 µM (≈ 45.3 µg/mL), an MIC [6] of 10.6 µM (≈ 16 µg/mL) and an MIC (Escherichia coli) of over 84.7 µM. It also gave an MIC [10] of 21.2 µM (≈ 32 µg/mL), an MIC (Pseudomonas aeruginosa) of 21.2 µM (≈ 32 µg/mL) and an MIC [11] of 10.6 µM (≈ 16 µg/mL). It also gave an MIC [8] of 10.6 µM (≈ 16 µg/mL) and an MIC (Staphylococcus aureus) of 15 µM (≈ 22.6 µg/mL).

In the case of `CC[C@H](C)[C@H](NC(=O)[C@H](C)NC(=O)[C@H](CC(C)C)NC(=O)[C@H](CCCN=C(N)N)NC(=O)[C@H](CC(C)C)NC(=O)[C@H](C)N)C(=O)N[C@@H](CCCN=C(N)N)C(=O)N[C@@H](CCCCN)C(=O)N[C@@H](CCCN=C(N)N)C(N)=O` [ALRLAIRKR], the MIC (Escherichia coli) is reported as 3.65 µM (≈ 4 µg/mL), the MIC (Pseudomonas aeruginosa) is reported as 13.7 µM (≈ 15 µg/mL) and the MIC (Staphylococcus aureus MR) is reported as at least 43.8 µM. For the same compound, the MIC (Staphylococcus aureus) was 4.56 µM (≈ 5 µg/mL).

Compound `CC(C)[C@H](NC(=O)[C@H](CCCN=C(N)N)NC(=O)[C@H](Cc1c[nH]c2ccccc12)NC(=O)[C@H](Cc1c[nH]c2ccccc12)NC(=O)[C@H](Cc1c[nH]c2ccccc12)NC(=O)[C@H](CCCN=C(N)N)NC(=O)[C@H](Cc1c[nH]c2ccccc12)NC(=O)[C@@H](N)CCCN=C(N)N)C(=O)N[C@@H](Cc1ccc(O)cc1)C(=O)O` [RWRWWWRVY] has an MIC (Candida albicans) of 13.2 µM (≈ 19.7 µg/mL), an MIC [12] of 3.3 µM (≈ 4.93 µg/mL) and an MIC (Escherichia coli UB1005) of 1.6 µM (≈ 2.39 µg/mL). The MIC [13] was 13.2 µM (≈ 19.7 µg/mL), the MIC [11] was 3.3 µM (≈ 4.93 µg/mL) and the MIC [8] was 3.3 µM (≈ 4.93 µg/mL). The MIC [14] was 1.6 µM (≈ 2.39 µg/mL).

With `CC[C@H](C)[C@H](NC(=O)[C@H](C)NC(=O)[C@H](CCC(=O)O)NC(=O)[C@H](CC(C)C)NC(=O)CNC(=O)CNC(=O)[C@H](CCCCN)NC(=O)[C@H](C)NC(=O)[C@H](Cc1ccccc1)NC(=O)[C@H](CCCCN)NC(=O)[C@H](CCCCN)NC(=O)[C@H](CC(C)C)NC(=O)CNC(=O)CNC(=O)[C@H](CC(C)C)NC(=O)[C@@H](NC(=O)[C@@H](NC(=O)[C@H](CO)NC(=O)[C@H](Cc1c[nH]c2ccccc12)NC(=O)[C@@H](NC(=O)CN)C(C)C)[C@@H](C)O)C(C)C)C(=O)N[C@H](C(=O)N[C@@H](CC(N)=O)C(=O)N1CCC[C@H]1C(=O)N[C@@H](CCCCN)C(=O)O)C(C)C` [GVWSTVLGGLKKFAKGGLEAIVNPK] the MIC [6] was 5.66 µM (≈ 14.5 µg/mL), the MIC (Micrococcus luteus) was 0.5 µM (≈ 1.29 µg/mL) and the MIC [7] was at least 32 µM. The MIC (Saccharomyces cerevisiae) was at least 32 µM, the MIC [8] was 45.3 µM (≈ 116 µg/mL) and the MIC [15] was at least 100 µM.

Work on `C[C@H](NC(=O)[C@H](C)NC(=O)[C@H](CCCCN)NC(=O)[C@H](CCCCN)NC(=O)[C@H](C)NC(=O)[C@H](Cc1ccccc1)NC(=O)[C@H](CCCCN)NC(=O)[C@H](CCCCN)NC(=O)[C@H](C)NC(=O)[C@H](C)NC(=O)[C@H](CCCCN)NC(=O)[C@H](CCCCN)NC(=O)[C@H](C)NC(=O)[C@H](Cc1ccccc1)NC(=O)[C@@H](N)CCCCN)C(=O)N[C@@H](CCCCN)C(=O)O` [KFAKKAAKKFAKKAAK] yielded an MIC [16] of at least 142 µM.
